System: LoVo colorectal cancer cells
Assay: In vitro growth (proliferation, viability) of LoVo colon cancer cells
Type: cell-based, human
Description: FIG. 4. Effects of fractions of Deschampsia antarctica in concentrations of 100 μg/ml on in vitro growth of colon cancer cells (HT29 and LoVo), hepatic cancer cells (Hep3B) and control cells (wi38). GCB1, GCB2 and GCB3 correspond to extraction of three different collections of Deschampsia antarctica plants for the Antarctic. The extracts were prepared with water, then dried and dissolved in methanol. Control contains no extract added and the methanol control is a control containing 5% methanol as was used to dissolve the dried aqueous extract.
FIG. 5. Effects of ethyl acetate (a and B) and methanol (c and d) extracts at to concentration of 75 ug/ml on LoVo colorectal cancer cells (a and c) and we38 human fetal fibroblast cells (b and d).
Its effect on WI38 (normal lung fibroblasts) was tested at the maximum concentration to determine specificity and toxicity.
The same extract was tested in WI 38 cells (normal lung fibroblasts).

Q: With `O=c1cc(-c2ccc(O)c(O)c2)oc2c([C@@H]3OC(CO)[C@@H](O)[C@H](O)C3O[C@H]3OC[C@H](O)[C@@H](O)C3O)c(O)cc(O)c12` (single isomer, unassigned; peak 2) [peak 2, orientin 2″-beta-arabinopyranoside] as the molecule, how does the “concentration at which inhibitory effect on cellular proliferation was observed” value (corresponds to 1.7 mM) read?
A: 1000 µg/mL

Q: What about the “concentration at which inhibitory effect on cellular proliferation was observed” value (tested at 0.017, 0.17 and 1.7 mM, FIG. 6) of the same molecule?
A: 1.7 mM

From US20140287074A1, “Extracts of deschampsia antartica with antineoplastic activity” (Uxmal S.A., Chile, priority 2013, published 2014)
